According to ChEMBL document CHEMBL1129295, “Studies of cardiotonic agents. 8. Synthesis and biological activities of optically active 6-(4-(benzylamino)-7-quinazolinyl)-4,5-dihydro-5-methyl-3(2H)- pyridazinone (KF15232)” (J Med Chem, 1996):

target: not listed separately; assay: Inhibition of bovine arterial Phosphodiesterase 4; design: species or system Bos taurus

SMILES	IC50
C[C@H]1CC(=O)NN=C1c1ccc2c(NCc3ccccc3)ncnc2c1	> 10000 nM
C[C@@H]1CC(=O)NN=C1c1ccc2c(NCc3ccccc3)ncnc2c1	> 10000 nM
CC1CC(=O)NN=C1c1ccc2c(NCc3ccccc3)ncnc2c1 (racemic)	> 10000 nM

Other lines, results leading:

IC50	SMILES
10000 nM	Cc1[nH]c(=O)c(C#N)cc1-c1ccncc1 [MILRINONE]
100 nM	COc1ccc(C2CNC(=O)C2)cc1OC1CCCC1 (configuration not stated) [ROLIPRAM]

target: Phosphodiesterase 3B (Bos taurus, UniProt E1BN64); assay: Inhibition of bovine arterial Phosphodiesterase 3
Sequence (E1BN64 whole entry): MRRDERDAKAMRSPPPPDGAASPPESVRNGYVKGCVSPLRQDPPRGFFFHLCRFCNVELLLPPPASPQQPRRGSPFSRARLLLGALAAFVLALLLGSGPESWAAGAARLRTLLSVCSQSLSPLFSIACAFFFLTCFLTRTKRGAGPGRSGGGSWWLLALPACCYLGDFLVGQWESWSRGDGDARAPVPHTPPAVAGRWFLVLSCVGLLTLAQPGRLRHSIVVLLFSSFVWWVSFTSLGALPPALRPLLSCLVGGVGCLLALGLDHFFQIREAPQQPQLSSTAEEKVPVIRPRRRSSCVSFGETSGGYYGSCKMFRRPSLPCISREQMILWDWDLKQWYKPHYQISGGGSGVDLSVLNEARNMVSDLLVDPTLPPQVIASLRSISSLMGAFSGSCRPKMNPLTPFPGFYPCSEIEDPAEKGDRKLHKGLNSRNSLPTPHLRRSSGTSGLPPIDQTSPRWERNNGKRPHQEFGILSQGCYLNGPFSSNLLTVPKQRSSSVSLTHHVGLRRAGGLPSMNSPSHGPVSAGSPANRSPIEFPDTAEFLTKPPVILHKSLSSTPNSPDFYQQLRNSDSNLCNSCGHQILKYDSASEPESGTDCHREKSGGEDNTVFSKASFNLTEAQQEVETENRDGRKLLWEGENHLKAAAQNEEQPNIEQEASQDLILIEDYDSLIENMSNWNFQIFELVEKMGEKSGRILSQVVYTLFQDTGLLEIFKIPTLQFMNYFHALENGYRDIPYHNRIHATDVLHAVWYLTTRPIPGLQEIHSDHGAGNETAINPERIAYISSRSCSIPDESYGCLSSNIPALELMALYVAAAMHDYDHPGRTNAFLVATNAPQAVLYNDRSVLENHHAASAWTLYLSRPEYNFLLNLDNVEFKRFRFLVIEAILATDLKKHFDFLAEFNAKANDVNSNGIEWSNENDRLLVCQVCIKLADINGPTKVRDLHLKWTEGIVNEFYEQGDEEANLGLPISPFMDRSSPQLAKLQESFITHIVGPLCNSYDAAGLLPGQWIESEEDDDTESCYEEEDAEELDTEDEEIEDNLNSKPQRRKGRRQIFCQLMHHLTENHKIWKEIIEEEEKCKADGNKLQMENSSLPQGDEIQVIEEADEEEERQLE

IC50	SMILES
1000 nM	Cc1[nH]c(=O)c(C#N)cc1-c1ccncc1 [MILRINONE]
100 nM	Nc1nc2c(ncn2[C@@H]2O[C@@H]3COP(=O)(O)O[C@H]3[C@H]2O)c(=O)[nH]1
